We go through 16 molecules from PubChem BioAssay (NCI).

Test systems include UACC-257 melanoma; MALME-3M melanoma; COLO 205 colon; OVCAR-8 ovarian; ACHN renal; UACC-62 melanoma; IGROV1 ovarian; HOP-62 NSCLC; OVCAR-4 ovarian.
What all share (experiment): growth of human tumour cells (NCI), 48 h

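Five compound concentrations were applied to cells in 96-well plates for 48 hours; endpoints were derived by simple linear interpolation of the resulting dose-response curve. TGI marks complete inhibition of growth.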

`O=C(O)/C(=C/C=C/c1ccccc1)c1csc(-c2nc(/C(=C\C=C\c3ccccc3)C(=O)O)cs2)n1`: the TGI in the experiment with UACC-257 melanoma is > 100 µM; in the experiment with MALME-3M melanoma, 60 µM; in the experiment on COLO 205 colon it was 51.3 µM; in the experiment on OVCAR-8 ovarian it was > 100 µM; with ACHN renal, 92.5 µM; with UACC-62 melanoma, 98.1 µM. Moreover, the TGI with IGROV1 ovarian was > 100 µM; with HOP-62 NSCLC, 54.6 µM.
`C1CCN(c2nc(=[N+]3CCCCC3)ss2)CC1`: the TGI in the experiment with UACC-257 melanoma, in the experiment on MALME-3M melanoma, with OVCAR-4 ovarian, with OVCAR-8 ovarian, with ACHN renal and with UACC-62 melanoma was > 100 µM each time. The TGI in the experiment with IGROV1 ovarian and with HOP-62 NSCLC was > 100 µM throughout.
In the case of `COc1cc(OC)c(C2CC=Cc3c(OC)cc(OC)c(OC)c32)cc1OC` (stereo not drawn), the TGI in the experiment on UACC-257 melanoma, in the experiment on MALME-3M melanoma, in the experiment on OVCAR-4 ovarian, with COLO 205 colon, with OVCAR-8 ovarian and in the experiment with ACHN renal was > 100 µM throughout. The TGI with UACC-62 melanoma, in the experiment on IGROV1 ovarian and in the experiment on HOP-62 NSCLC was > 100 µM throughout.
Regarding `Clc1ccc(C2SCc3nc4ccccc4n32)cc1Cl` (stereo not drawn), the TGI in the experiment on MALME-3M melanoma worked out at 42.5 µM; in the experiment with OVCAR-4 ovarian, 25.8 µM; in the experiment on COLO 205 colon, 38.3 µM; in the experiment with OVCAR-8 ovarian it was 26.9 µM; in the experiment with ACHN renal, 29.1 µM; in the experiment with UACC-62 melanoma, 27.1 µM. In addition, the TGI was 38.8 µM in the experiment on IGROV1 ovarian and 27.8 µM in the experiment with HOP-62 NSCLC.
`CCC(=O)c1c(NOC2OC(COC(C)=O)C(OC(C)=O)C(OC(C)=O)C2OC(C)=O)nc(OC)n(C)c1=O` (stereo not drawn): the TGI in the experiment with OVCAR-4 ovarian, in the experiment on COLO 205 colon, in the experiment on OVCAR-8 ovarian, in the experiment with ACHN renal, in the experiment with UACC-62 melanoma and with IGROV1 ovarian was > 100 µM each time. In addition, the TGI in the experiment on HOP-62 NSCLC was > 100 µM.
As to `NCCCNCCCCN(CCCN)/[N+]([O-])=N\O`, the TGI with UACC-257 melanoma, in the experiment on MALME-3M melanoma, in the experiment on OVCAR-4 ovarian, in the experiment with COLO 205 colon, in the experiment on OVCAR-8 ovarian and in the experiment on ACHN renal was > 100 µM each time. Also, the TGI in the experiment on UACC-62 melanoma, in the experiment with IGROV1 ovarian and with HOP-62 NSCLC was > 100 µM throughout.
Consider `COc1cc2c3c(c1OC)-c1c(ccc4c1OCO4)CC3(C#N)N(C(=O)c1ccccc1)CC2` (stereo not drawn), for which the TGI in the experiment on UACC-257 melanoma is > 100 µM; with MALME-3M melanoma, > 100 µM; with OVCAR-4 ovarian it was 59 µM; in the experiment on COLO 205 colon, > 100 µM; in the experiment with OVCAR-8 ovarian it was > 100 µM; in the experiment on UACC-62 melanoma, > 100 µM. The TGI in the experiment with IGROV1 ovarian and with HOP-62 NSCLC was > 100 µM each time.
For `COC(=O)c1c(N)n[nH]c1N`, the TGI with UACC-257 melanoma, in the experiment with OVCAR-4 ovarian, with COLO 205 colon, in the experiment on OVCAR-8 ovarian, in the experiment with UACC-62 melanoma and in the experiment with IGROV1 ovarian was > 100 µM in each case. Moreover, the TGI with HOP-62 NSCLC is > 100 µM.
Regarding `CC(=O)c1ccc(NC(=O)C(=O)Nn2c(=S)[nH]c3ccccc3c2=O)cc1`, the TGI in the experiment on UACC-257 melanoma, in the experiment with MALME-3M melanoma, with OVCAR-4 ovarian, with COLO 205 colon, with OVCAR-8 ovarian and in the experiment on ACHN renal was > 100 µM each time. Besides, the TGI with UACC-62 melanoma, in the experiment on IGROV1 ovarian and in the experiment on HOP-62 NSCLC was > 100 µM in each case.
`O=C(Nc1nc2ncn(CCNCc3ccccc3)c2c(=O)[nH]1)c1ccccc1`: the TGI in the experiment on UACC-257 melanoma, in the experiment on MALME-3M melanoma, with OVCAR-4 ovarian, with COLO 205 colon, with OVCAR-8 ovarian and in the experiment with ACHN renal was > 100 µM each time. The TGI in the experiment on UACC-62 melanoma, with IGROV1 ovarian and in the experiment with HOP-62 NSCLC was > 100 µM in each case.
`Cc1cc(C)nc(NS(=O)(=O)c2ccc(Nc3c4ccc(Cl)cc4nc4c(C(=O)Nc5ccc(S(N)(=O)=O)cc5)cccc34)cc2)n1`: the TGI in the experiment with UACC-257 melanoma was 43.9 µM; in the experiment on MALME-3M melanoma, > 100 µM; in the experiment with OVCAR-4 ovarian it was 55.5 µM; with OVCAR-8 ovarian, 37.7 µM; in the experiment with ACHN renal it was > 100 µM; with UACC-62 melanoma, 76.6 µM. The molecule further had a TGI with HOP-62 NSCLC of 37.8 µM.
In the case of `COC(=O)CCC(=O)CC(=O)C(=O)Nc1c(Cl)cc([N+](=O)[O-])cc1Cl`, the TGI in the experiment on UACC-257 melanoma, in the experiment on MALME-3M melanoma, in the experiment on OVCAR-4 ovarian, in the experiment with COLO 205 colon, with OVCAR-8 ovarian and with ACHN renal was > 100 µM throughout. For the same molecule, the TGI in the experiment with UACC-62 melanoma, in the experiment with IGROV1 ovarian and with HOP-62 NSCLC was > 100 µM throughout.
On to `O=C(CC1(O)C(=O)Nc2c(Cl)cc(Cl)cc21)c1cccc2ccccc12` (stereo not drawn), for which the TGI with UACC-257 melanoma was determined as 29.8 µM; in the experiment on MALME-3M melanoma, 35.2 µM; in the experiment with OVCAR-4 ovarian, 25.4 µM; in the experiment with COLO 205 colon, 31.4 µM; in the experiment on OVCAR-8 ovarian it was 32.2 µM; with ACHN renal, 30.8 µM. For the same molecule, the TGI with UACC-62 melanoma came to 28.9 µM; in the experiment with IGROV1 ovarian it was 36.9 µM; with HOP-62 NSCLC it was 30.6 µM.
Take `O=CC[C@H]1CCc2ccccc2C12CCC(=O)CC2`: the TGI with UACC-257 melanoma, in the experiment on MALME-3M melanoma, with OVCAR-4 ovarian, with COLO 205 colon, in the experiment with OVCAR-8 ovarian and in the experiment on ACHN renal was > 100 µM in each case. Further, the TGI in the experiment on UACC-62 melanoma, in the experiment with IGROV1 ovarian and in the experiment on HOP-62 NSCLC was > 100 µM throughout.
As to `CC(C)(C)c1cc2c3c(c1)C(C(F)(F)F)(C(F)(F)F)O[Te]3(C)OC2(C(F)(F)F)C(F)(F)F`, the TGI in the experiment on UACC-257 melanoma, with MALME-3M melanoma, with OVCAR-4 ovarian, with COLO 205 colon, in the experiment with ACHN renal and in the experiment with UACC-62 melanoma was > 100 µM each time. Also, the TGI in the experiment with IGROV1 ovarian and in the experiment on HOP-62 NSCLC was > 100 µM throughout.
On to `O=C1C2C3C=CC(C2C(=O)N1COP(=O)(O)O)C1C2C(=O)N(COP(=O)(O)O)C(=O)C2C31` (stereo not drawn), for which the TGI with UACC-257 melanoma was > 100 µM; in the experiment on MALME-3M melanoma it was > 100 µM; in the experiment with OVCAR-4 ovarian it was > 100 µM; in the experiment on COLO 205 colon, > 65 µM; in the experiment with OVCAR-8 ovarian, > 100 µM; with ACHN renal, > 100 µM. Further, the TGI in the experiment on UACC-62 melanoma, with IGROV1 ovarian and in the experiment on HOP-62 NSCLC was > 100 µM throughout.
